Reference: PubChem BioAssay (NCI)
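1) Cells in 96-well plates. 2) Compound, 48 h, 5 concentrations. 3) Linear interpolation between surrounding doses. 4) Unreached endpoint = highest concentration. TGI marks complete inhibition of growth.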

How the values were obtained:
Test in all cases: NCI tumour cell line growth inhibition, 48 h
A549 NSCLC = test system: A549 NSCLC
DMS 114 small cell lung = test system: DMS 114 small cell lung
HOP-18 NSCLC = test system: HOP-18 NSCLC
LXFL 529 NSCLC = test system: LXFL 529 NSCLC
M19-MEL melanoma = test system: M19-MEL melanoma
SK-MEL-28 melanoma = test system: SK-MEL-28 melanoma
SNB-78 CNS = test system: SNB-78 CNS
XF 498 CNS = test system: XF 498 CNS
A498 renal = test system: A498 renal
DLD-1 colon = test system: DLD-1 colon
DMS 273 small cell lung = test system: DMS 273 small cell lung
DU-145 prostate = test system: DU-145 prostate
KM20L2 colon = test system: KM20L2 colon
T-47D breast = test system: T-47D breast

SMILES	TGI (A549 NSCLC) [µM]	TGI (DMS 114 small cell lung) [µM]	TGI (HOP-18 NSCLC) [µM]	TGI (LXFL 529 NSCLC) [µM]	TGI (M19-MEL melanoma) [µM]	TGI (SK-MEL-28 melanoma) [µM]	TGI (SNB-78 CNS) [µM]	TGI (XF 498 CNS) [µM]	TGI (A498 renal) [µM]	TGI (DLD-1 colon) [µM]	TGI (DMS 273 small cell lung) [µM]	TGI (DU-145 prostate) [µM]	TGI (KM20L2 colon) [µM]	TGI (T-47D breast) [µM]
CN(C)c1nc(N(C)C)nc(N(C)CN(C)c2ccccc2)n1	> 100	> 100	> 100	> 100	> 100	> 100	> 100	> 100	–	–	–	–	–	–
O=C1C=C2S[C@H]3C[C@]2(C=C1Br)c1c(c(O)c2c4c1=NCCC=4C=N2)N3	6.85	0.404	3.23	0.395	–	2.76	3.79	2.78	13.3	2.06	2.39	4.09	1.93	0.89
Cc1ccc2nc3c(C(=O)NCCN(C)C)cccc3cc2c1	4	5.32	5.76	–	4.66	6.67	15	3.67	3.4	8.85	6.02	–	5.58	–
C#CCNC(=O)CCC(N)C(=O)O (stereo not given)	> 100	> 100	> 100	–	> 100	> 100	> 100	> 100	> 100	> 100	> 100	–	> 100	–
COC1/C=C\C=C(/C)C(=O)NC2=CC(=O)C=C(C2=O)C(OC)C(C)CC(OC)C(OC)C(C)/C=C(/C)C1OC(N)=O (stereo not given)	32.4	10.1	–	–	18	19.8	17.2	4.83	28.4	8.02	27.3	–	17.2	–
NCCCNCCSSCc1ccccc1CSSCCNCCCN	> 100	> 100	> 100	> 100	> 100	> 100	> 100	> 100	> 100	> 100	> 100	–	> 100	–
